The nature of data set [1]: Equilibria of isomers in an octanol-water two-phase system. Type of data set: physicochemical. To be noted: octanol-water system (1:1) with mitraphylline and isomitraphylline, approximately pH 5. The text has this:
As expected the equilibrium of isomers in a two-phase system (1aq ? 1org, 2aq ? 2org, FIG. 3) depends not only on the pH value of the aqueous phase but also on the amount and nature of the organic phase, For an example, the equilibria of mitraphylline and isomitraphylline in an octanol-water system (1:1) at pH values from 3 to 7 are shown (FIG. 4). It can be seen that in the pH range from 4 to 7 isomitraphylline is predominant in the octanol phase, with a maximum of 94 mol-% at approximately pH 5. However, below pH 3 mitraphylline begins to prevail in the aqueous phase. At no pH value is isomitraphylline produced in the aqueous phase to a reasonable extent. Therefore, the distribution of the isomers in a 2-phase system is clearly different compared to the situation in a purely aqueous solution.

The nature of data set [2]: Partition between octanol and aqueous phosphate buffer pH 7. Type of data set: physicochemical. How it is done: Cells in a culture medium can be viewed as a two-phase system consisting of water and lipids. The distribution of the alkaloids in cell cultures and in mixtures of octanol and water was studied. […] The alkaloids were partitioned between equal volumes of octanol and aqueous phosphate buffer pH 7 (0.01 M) at 20° C. The concentrations c of the alkaloids were determined by HPLC analysis and the coefficients of distribution [formula] were calculated.

For data set [3] the following is noted: stimulant IMM-2418 (1.1 μM). How it is done:
A RPMI-1640 culture medium (Sigma-Aldrich Company, St. Louis, USA) completed with 10% by volume fetal calf serum, 2 mM glutamin, 50 units/ml penicillin G, and 50 μg/ml streptomycin was used.

Setting [4] is: octanol / aqueous phosphate buffer pH 7 (0.01 M), equal volumes, 20° C.

For the molecule `COC(=O)C1=CO[C@@H](C)[C@H]2CN3CC[C@@]4(C(=O)Nc5ccccc54)[C@@H]3C[C@H]12` [Isomitraphylline], in data set [1], the “equilibrium concentration in the octanol phase, maximum” value was 94 mol-%. Moreover, the “log KO/W (common logarithm of the partition coefficient)” value (shortened to “log KO/W”) in data set [2] (pH 7) turned out to be 2.8.
On to `COC(=O)C1=CO[C@@H](C)[C@@H]2CN3CC[C@@]4(C(=O)Nc5ccccc54)[C@@H]3C[C@H]12` [Isopteropodine], for which the “log KO/W” value in data set [2] (pH 7) is 3.2.
Regarding `CC[C@H]1CN2CC[C@@]3(C(=O)Nc4ccccc43)[C@@H]2C[C@@H]1/C(=C\OC)C(=O)OC` [Isorhynchophylline], in data set [3], the “alkaloid concentration in RPMI-1640 nutrient medium, 7 Days” value came to 0.27 mg/L and the “alkaloid concentration in RPMI-1640 nutrient medium, Start” value was 0.27 mg/L. In addition, in data set [2] (setting [4]), the “log KO/W” value was 3.1.
Turning to `COC(=O)C1=CO[C@@H](C)[C@H]2CN3CC[C@]4(C(=O)Nc5ccccc54)[C@@H]3C[C@H]12` [Mitraphylline], the “log KO/W” value in data set [2] (pH 7) turned out to be 2.5.
Same read-out and setting: the result for `COC(=O)C1=CO[C@@H](C)[C@@H]2CN3CC[C@]4(C(=O)Nc5ccccc54)[C@@H]3C[C@H]12` [Pteropodine] reads 2.9.
`CC[C@H]1CN2CC[C@]3(C(=O)Nc4ccccc43)[C@@H]2C[C@@H]1/C(=C\OC)C(=O)OC` [Rhynchophylline]: in data set [3], the “alkaloid concentration in RPMI-1640 nutrient medium, 7 Days” value was found to be 0.13 mg/L and the “alkaloid concentration in RPMI-1640 nutrient medium, Start” value came to 0.15 mg/L. Besides, the “log KO/W” value in data set [2] (setting [4]) was found to be 2.7.
In the case of `COC(=O)C1=CO[C@@H](C)[C@@H]2CN3CC[C@@]4(C(=O)Nc5ccccc54)[C@H]3C[C@H]12` [Speciophylline], the “log KO/W” value in data set [2] (pH 7) is recorded as 1.4.
As for `COC(=O)C1=CO[C@@H](C)[C@@H]2CN3CC[C@]4(C(=O)Nc5ccccc54)[C@H]3C[C@H]12` [Uncarine F], the “log KO/W” value in data set [2] (setting [4]) is 3.1.

For the origin of these results see US7238374B2, “Process and substances for the release of a growth-regulating factor from endothelial cells” (priority 1998, dated 2007).
